Measured values published in US20060013899A1, “Topical compositions for treatment of skin disorders and methods of use thereof” (priority 2004, published 2006).

What was measured:
interleukin-8 = conditions: cited from earlier work
[1] = test system: mild to moderate eczema lesions
Description: Anecdotally, zinc pyrithione appears to produce a transient histamine blocking or inhibiting mechanism.

[2] = test system: eczema, psoriasis and other forms of immuno-dysfunctional dermatitis; assay: control of eczema, psoriasis and other immuno-dysfunctional dermatitis by the individual ingredients and their combination; type: in vivo, human
Description: The present invention includes zinc pyrithione, which has been used in other preparations for various types of skin conditions. Zinc pyrithione may be used to control mild to possibly moderate eczema and psoriasis.
The explanations above provide some validation of how these three ingredients may provide limited benefits, but cannot explain the dynamics of their relationship in the control of pro-inflammatory cytokines and the speed of the repair and healing process.

[3] = only known side effect; cited from earlier work
[4] = 24 patients, 0.25% zinc pyrithione spray; cited from earlier work
[5] = suspended in a water solution, topical, mild to moderate eczema lesions

Row | Substance | tumor necrosis factor-alpha mediated interleukin-8 expression (interleukin-8) | erythema ([1]; during the period of itch relief) | duration of itch relief [1, 5] | time to relief of the itching sensation [1, 5] | control of disease ([2]; ingredient used individually or the three combined) | control of disease in the moderate to severe ranges ([2]; zinc pyrithione by itself) | normal allergic reaction, share of the population [3] | effect on the efficacy of clobetasol propionate [4]
1 | epigallocatechin-3-gallate | inhibits tumor necrosis factor-alpha mediated interleukin-8 expression in a dose related manner | – | – | – | – | – | – | –
2 | zinc pyrithione | – | erythema was reduced | up to six | fifteen to thirty | some degree of control benefits for mild and possibly moderate eczema, psoriasis | fails to control these diseases in the moderate to severe ranges | less than one | did not appear to enhance the efficacy of clobetasol propionate
